What all share (experiment): NCI anticancer screen, dose series, 48 h
In assay [1] the test system is RXF 393 renal.
Assay [2] relates to RPMI-8226 leukemia.
Assay [3] deals with MALME-3M melanoma.
The test system of assay [4] is HT29 colon.
The subject of assay [5] is NCI-H522 lung.
Assay [6] concerns SW-620 colon.
In assay [7] the test system is OVCAR-5 ovarian.
The test system of assay [8] is MDA-MB-435.
Assay [9] deals with SF-268 CNS.
Assay [10] relates to CCRF-CEM leukemia.
Assay [11] deals with SF-539 CNS.

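Exposure lasted 48 hours, with cells grown in 96-well plates and compounds tested at five concentrations. TGI is the concentration that stops growth completely.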 Where only a bound is given, the exact number is not on record here.

Turning to `O=C1NC(=S)N/C1=C\c1ccc(Sc2ccccc2C(=O)O)s1`, the TGI is more than 100 µM in assay [1]; more than 100 µM in assay [2]; more than 100 µM in assay [3]; more than 100 µM in assay [4]; 44.4 µM in assay [5]; more than 100 µM in assay [6]. Besides, the TGI in [7], in assay [8] and in assay [9] was more than 100 µM throughout.

Take `NC(=O)CC[C@H]1C(=O)N=C(N)N1C(=O)OCc1ccccc1`: the TGI in assay [1], in assay [2], in assay [3], in assay [4], in assay [5] and in assay [6] was more than 100 µM each time. Besides, the TGI in assay [7], in assay [8] and in assay [9] was more than 100 µM in each case.

In the case of `CC(=O)NCC1OC2COC(c3ccccc3)OC2C2N=C(c3ccccc3)OC12` (stereo not given), the TGI in assay [1] is more than 100 µM; in assay [10], more than 100 µM; in assay [2] it was 89.1 µM; in assay [3], more than 100 µM; in assay [4], more than 100 µM; in [11] it was more than 100 µM. Also, the TGI in [6], in [7], in assay [8] and in assay [9] was more than 100 µM in each case.

As for `CC(C)CCCC(C)[C@H]1CC[C@H]2NCCCC[C@]12C` (stereo not given in full), the TGI in assay [1] was determined as 4.62 µM; in [10] it was 4.16 µM; in assay [2] it was 4.01 µM; in assay [3], 16.4 µM; in assay [4], 5.54 µM; in assay [11] it was 19.5 µM. In addition, the TGI in assay [6] is 9.84 µM; in assay [7], 6.03 µM; in [8], 4.1 µM; in assay [9], 32.2 µM.

Consider `C/C(=C\COP(=O)(O)OP(=O)(O)O)CC/C=C(\C)CNc1ccccc1`, for which the TGI was more than 50 µM in assay [1]; 10.3 µM in [10]; 0.0403 µM in [2]; more than 50 µM in assay [4]; more than 50 µM in assay [5]; more than 50 µM in [11]. The TGI in [6], in assay [7], in [8] and in assay [9] was more than 50 µM each time.

Regarding `N#C[C@H]1C(=O)C(c2nc3ccccc3[nH]2)S[C@H]1c1ccccc1` (stereo not given in full), the TGI was 67.8 µM in [1]; more than 100 µM in assay [10]; 89.7 µM in assay [2]; more than 100 µM in assay [3]; more than 100 µM in assay [4]; 52.6 µM in assay [5]. For the same compound, the TGI in assay [6] was more than 100 µM; in [7] it was more than 100 µM; in assay [8] it was 87.8 µM.

Regarding `COc1ccc(C(=O)/C=C/c2ccc(OCCCOc3ccc(/C=C/C(=O)c4ccc(OC)c(OC)c4)cc3)cc2)cc1OC`, the TGI in assay [1], in [10], in assay [2], in assay [4], in [11] and in [6] was more than 100 µM throughout. The TGI in [8] and in [9] was more than 100 µM in each case.

Take `O=C1c2ccccc2C2(c3ccc(Cl)cc3)N[C@@H]3CCCC[C@@H]3N12` (stereo not given in full): the TGI in assay [1], in assay [10], in assay [2], in assay [11], in assay [6] and in [7] was more than 100 µM each time. The TGI in assay [8] and in [9] was more than 100 µM throughout.

For `O=[N+]([O-])c1cccc([N+](=O)[O-])c1Cl`, the TGI is 38.3 µM in [1]; more than 100 µM in assay [2]; 34.7 µM in assay [3]; 45.1 µM in assay [4]; 29.5 µM in assay [5]; 35 µM in [11]. The TGI was more than 100 µM in [6], 43.1 µM in assay [7], 35.3 µM in assay [8] and 46.5 µM in [9].

Turning to `O=c1cnc2cc3ccccc3cc2[nH]1`, the TGI in assay [1], in [10], in assay [2], in assay [3], in [4] and in assay [5] was more than 100 µM throughout. The TGI in assay [6], in [7], in assay [8] and in assay [9] was more than 100 µM in each case.

On to `OCC1c2ccccc2-n2nc(-c3ccccc3)c(O)c21` (stereo not given), for which the TGI in [1] was 31.9 µM; in assay [10], more than 100 µM; in assay [3], 33.3 µM; in [4] it was 76.4 µM; in assay [5], 48.7 µM; in assay [11] it was more than 100 µM. The TGI in [6] was 67.3 µM; in assay [7], more than 100 µM; in assay [8] it was 92.2 µM; in assay [9], more than 100 µM.

As to `CCOC(=O)c1c(SCCN2CCCCC2)n(-c2ccccc2)c(=S)n(-c2ccccc2)c1=O`, the TGI is 25.7 µM in assay [1]; 11.8 µM in assay [10]; more than 21.9 µM in assay [2]; 30.3 µM in assay [3]; 32.1 µM in [4]; 35.4 µM in assay [5]. For the same compound, the TGI in assay [6] is 13.8 µM; in assay [7] it was more than 100 µM; in assay [8], 31.5 µM; in [9], more than 75.4 µM.

On to `O=C1/C(=C/C=C/c2ccccc2)CCC1CNc1ccc(Br)cc1` (stereo not given), for which the TGI is more than 100 µM in assay [1]; more than 100 µM in [10]; 0.246 µM in assay [3]; more than 100 µM in [4]; 57 µM in [5]; more than 100 µM in assay [11]. The TGI in assay [6], in [7], in assay [8] and in assay [9] was more than 100 µM in each case.

In the case of `CN1C(=O)C(CCO)(C(C)(C)C)c2ccccc21` (stereo not given), the TGI in assay [1], in [10], in assay [2], in assay [6], in assay [7] and in assay [8] was more than 100 µM each time. The same compound showed a TGI in assay [9] of more than 100 µM.

The values are drawn from PubChem BioAssay (NCI).
